From patent publication US20240277653A1, “USE OF FURANCARBOXYLIC ACIDS IN THE PREPARATION OF ADDITIVES FOR ANIMAL FEEDS” (ANIPHA TECHNOLOGIES PTY LTD, priority 2021, published 2024)

Assays:
[1] = system: yellow-feathered broilers; assay: Use of furancarboxylic acids in a feed for chicken (broiler performance); type: in vivo; conditions: 1-day-old broilers, basal diet comprising 1000 ppm test article, 20 days, mean
Source text: This experiment adopted a single-factor randomization design. 480 1-day-old broilers with an average body weight of 50 g were selected and randomly divided into 4 groups, with 6 replicates in each group, half male and female, 20 yellow-feathered broilers per replicate. The chicken house and utensils were disinfected before the test. During the period of test, broilers were kept in cages under the same feeding and management conditions. The basal diet is mainly based on corn-soybean meal, and other antioxidants and growth promoters are not added during the whole feeding. The test groups are shown in Table 2, among which, group I was the control group, and was only fed with the basal diet; test groups II, III and IV were fed with the basal diet comprising 1000 ppm of a compound of furancarboxylic acids shown in Table 2, respectively. The test lasted 20 days, and the test broilers were fed with food and water ad libitum, and were fed twice a day. Test broilers in each replicate were weighed at 21 days of age (stop feeding for 12 hours and keep water). The feed consumption of the test broilers was counted, and the average daily feed intake (ADFI, g/d*broiler), average daily weight gain (ADG, g/d*broiler) and feed conversion ratio (FCR) of each test broiler were calculated.

[2] = system: weaned piglets; assay: Effects of furancarboxylic acids on performance of weaned piglets; type: in vivo, Duroc-landrace-yorkshire swine; conditions: 65-day-old pigs, basal diet comprising 2000 ppm test article, 28 days, mean
Source text: A total of 120 65-day-old Duroc-landrace-yorkshire swine with similar body weight were randomly divided into 4 groups, each with 3 replicates, half male and female, […]. The pigpen and utensils were disinfected before the test. During the period of test, pigs were kept in separate pens under the same feeding and management conditions. During the test, the test pigs were fed with food and water ad libitum, and were fed twice a day. The test groups are shown in Table 1, among which, group I was the control group, and was only fed with the basal diet; test groups II, III and IV were fed with the basal diet comprising 2000 ppm of a compound of furancarboxylic acids shown in Table 1, respectively. […] The test lasted 28 days, and the performances of the test pigs, for example, the average daily feed intake (ADFI, g/d*pig), average daily weight gain (ADG, g/d*pig) and feed conversion ratio (FCR) of each pig were counted.

[3] = system: grass carp fingerlings; assay: Use of furancarboxylic acids in a feed for fish (grass carp growth-promoting test); type: in vivo; conditions: 500 ppm in test feed, 8 weeks; for Weight gain: 100×(final−initial)/initial weight; for FCR (feed conversion rate): feed intake/weight gain
Method: Test fish: The test fish used were the healthy and lively grass carp fingerlings of the same year and were reared in a large cage (4×2×1.5 m^3) for 4 weeks before being used for formal breeding tests. The experimental system was a small floating cage (with size of 1.1×1.1×1.1 m^3); each small cage is equipped with a bubbling head, and bubbling 24 hours a day. The small cages and the temporary cages were placed in a test facility, a 3500 m^2 pond, the pond depth was about 1.5 m, and the pond water was fully aerated bottom water. During the test, 240 grass carps that had been starved for 1 day were randomly divided into 3 groups, each group was provided with 4 replicates, and 20 fish were placed in each replicate. Each replicate was weighed and placed into 12 cages, respectively fed with a test feed supplemented with a compound of furancarboxylic acids.
Test feed: The test feed was prepared according to the formula in Table 3, and 500 ppm of a compound of furancarboxylic acids were added to different test groups according to Table 4. The feedstuff used was ultrafinely grinded and then passed through the Jiangsu Muyang extruder to make a floating extruded feed with a particle size of 3 mm. The mold release temperature was 130° C., and 3% soybean oil was sprayed externally through the oil injection equipment, and sealed in a cool place for use.
Procedures: The experiment adopts artificial food restriction feeding, the feeding amount is adjusted once a week, the feeding level (based on the initial body weight) of each group is exactly the same, feeding twice a day (at 7:30 am and 15:00 pm), and the total feeding amount is 580 g per replicate. The test lasted 8 weeks. The water quality was monitored regularly during the test. The water temperature was 26.88±3.08° C., with DO>5.0 mg O L^−1, pH 7.8, ammonia nitrogen <0.50 mg N L^−1, and nitrite nitrogen <0.05 mg N L^−1 during the whole breeding process.
Parameter statistics: During the test, the fish in each cage were weighed as a whole 1 day of stopping feeding, and their weight gain (WG, %), feed conversion rate (FCR) and survival rate (SR, %) were calculated as follows:
Weight gain (WG, %)=100×(average final weight−average initial weight)/average initial weight;
Feed conversion rate (FCR)=feed intake/weight gain of fish;
Survival rate (SR, %)=100×number of fish at the end of the experiment/number of fish at the beginning of the experiment.

| SMILES | ADFI (average daily feed intake) [1] | ADG (average daily weight gain) [1] | FCR (feed conversion ratio) [1] | ADFI (average daily feed intake) [2] | ADG (average daily weight gain) [2] | FCR (feed conversion ratio) [2] | Average final weight [3] | SR (survival rate) [3] | Weight gain [3] | FCR (feed conversion rate) [3] |
| --- | --- | --- | --- | --- | --- | --- | --- | --- | --- | --- |
| O=C(O)c1coc(C(=O)O)c1 [2,4-Furandicarboxylic acid] | 36.5 g/d*broiler | 17.4 g/d*broiler | 2.10 | 1263 g/d*pig | 507 g/d*pig | 2.490 |  |  |  |  |
| O=C(O)c1ccco1 [2-Furancarboxylic acid] | 35.2 g/d*broiler | 16.9 g/d*broiler | 2.08 | 1274 g/d*pig | 512 g/d*pig | 2.489 | 586.87 g | 82.50% | 134.96% | 1.48 |
| O=C(O)c1ccoc1 [3-Furancarboxylic acid] | 34.0 g/d*broiler | 16.4 g/d*broiler | 2.07 | 1240 g/d*pig | 498 g/d*pig | 2.491 | 589.33 g | 83.75% | 138.98% | 1.48 |
